This is an account of results in US6844356B2, “Hemorrhoid therapeutic treatment” (priority 2003, dated 2005).

The conditions of data set [1]: cited from earlier work.
Another data set concerns hemorrhoid. The data set can be described thus: injection of the solution into the hemorrhoid of patients. Format: in vivo. The following applies: injected into the hemorrhoid as water solution. As for the experimental part:
A chemical treatment for the permanent relief of hemorrhoids is provided by the chemical composition of this invention. The composition comprises a mixture of Yong Noe, a Chinese herb known to Western man as camphor, quinine, and distilled water. These two ingredients are ground into powder and dissolved in distilled water. The composition is then injected by a medical practitioner into the affected area at least once, and perhaps several times, over a two week period. After a period of time, the hemorrhoidal tissue will turn dark, harden, and flake off leaving the skin clear at the site of the former hemorrhoid. A mixture of Yong Noe and quinine in a […] in an amount of 37.5 grams are divided into 7 equal weight portions. Each portion of the mixture is dissolved in 4 grams of water by placing the composition in a container in boiling water for 3-5 minutes. The composition is a clear whitish solution. This solution is used at room temperature as the medicament for the treatment of hemorrhoids as will be discussed infra. […] The composition of 37.5 grams of solids is comprised of 25 grams of quinine and 12.5 grams of camphor. This mixture is equally divided and filled into seven different 10 cc vials, and 4 cc distilled water is added to each vial. […]

`CC12CCC(CC1=O)C2(C)C` (centres unmarked) [Camphor]: the solubility result in data set [1] was “only slightly soluble in water”. On to `C=C[C@H]1C[N@@]2CC[C@H]1C[C@H]2[C@H](O)c1ccnc2ccc(OC)cc12` [quinine alone, quinine], for which the “result of injection into the hemorrhoid” value with hemorrhoid is given as “not effectual”.
